Data as given in patent US12162892B2, “CD16a binding agents and uses thereof” (KLEO PHARMACEUTICALS, INC., priority 2018, dated 2024).
Values joined by “and” are separate entries in the source; they are usually repeats but may differ in a detail not shown here. Identical values can stand only once. Blank lines part the entries; values can stand above or below the molecule they belong to.

Experiments:
[1] = system: CD16a negative THP1 cells; assay: ADCP assay using THP-1 cells; format: cell-based; settings: beads loaded with test compound at 50 uM; 37C for 18 hrs
Description: (§1) Biotinylated fluorescent beads (Invitrogen, cat #P35372) were thoroughly mixed by vortexing for 1 min. Ten microliters of supplied bead suspension per treatment type were dispensed in Eppendorf tubes, and washed with 1 ml PBS […], then re-suspended in 500 uL of 1% BSA in PBS. Test compounds were added to bead suspensions to a final concentration of 50 uM, and biotinylated human IgG whole molecule (Rockland 009-0602) final concentration of 20 ug/mL.
(§2) Tubes were incubated at room temperature for 1 hr on a rocking platform.
(§3) Following incubation, beads were pelleted in a microcentrifuge at 12,000 g for 5 minutes at room temperature. Supernatants were carefully aspirated and beads were washed 5 times by resuspending in 1 ml of PBS 1% BSA, and centrifuging as described above. Finally, beads were resuspended in 500 ul of PBS 1% BSA and used in ADCP assay.
(§4) Monocytes or THP-1 cells (TIB-202 ATCC) were seeded into 96 well round bottom 96 well plates at the density of 10^5 cells per well in 200 ul, and 10 uL of fluorescent bead suspension prepared as described above was added to each well. Well contents were mixed by pipetting up and down using a multichannel pipet, and plates were incubated at 37C for 18 hrs. After incubation, well contents were transferred into flat bottom black 96 well plates (Costar #3358) and centrifuged for 2 minutes at 300 g to allow for better visualization of the cells. Images were taken using Zoe fluorescent cell imager (Biorad).

CD16a158F [2] = target: T1, CD16a158F (Homo sapiens, UniProt P08637); assay: Biotinylated Ligand ELISA Assay; format: binding; parameters: purchased Acro Biosystems CDA-H82E8; settings: Biotinylated CD16a protein at 10 nM
Method in brief: (§5)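 Neutravidin-coated plates, BSA-blocked, loaded with biotinylated ligands 1 h at 25° C., free sites blocked with 100 μM biotin. Bound protein detected with streptavidin-HRP 1 h at 25° C. and chemiluminescent substrate for 5 min; luminescence read.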

CD16a158F [3] = target: T1, CD16a158F; assay: Microscale Thermophoresis; format: binding; parameters: purchased Acro Biosystems CDA-H82E8; settings: read-out: MST-CD16a158F KD
Description: (§6) Target proteins (poly-histidine tagged, 600 nM) were fluorescently labeled combination with an equal volume of dye (200 nM, His-Tag labeling kit RED-tris-NTA NanoTemper: MO-L008) PBST. The mixture rotated in the dark for 45 min before being spun down at 12000 rpm for 15 min to remove uncomplexed material. The fluorescence of the removed supernatant was adjusted to for a test concentration of 40-80 nM (2× the final measured). Test ligands were prepared across a 12-point dilution series in a 96-well PCR plate at a volume of 20 uL at 2× the concentration desired for testing (0.2% BSA in PBST). The dilution series was then combined with an equal volume of the labeled target at 2× the concentration desired for testing. Capillaries were added to the wells of the combined target/ligand complex and measured by MST. Measurements were taken using a Nanotemper Monolith NT.115, and the data was analyzed using NanoTemper MO.Control software.

primary monocytes = assay: ADCP assay using fresh primary monocytes; format: cell-based, human; settings: beads loaded with test compound at 50 uM; 37C for 18 hrs
Description: as §1, §2, §3
PBMC, freshly isolated from whole blood (Bioreclamation IVT0) using Ficoll-Paque density centrifugation were resuspended in serum-free, supplemented RPMI at 2×10^6 cells/mL.
Ten milliliters of the resulting cell suspension was seeded into 75-cm^2 tissue culture flask (Denville Scientific TC9341) and incubated 2-3 hr at 37° C. 5% CO2 to allow cell adhesion. Following incubation, media was decanted and surface of the flask was carefully washed twice, each time with 10 ml serum-free, supplemented RPMI to remove any residual non-adherent cells. To remove adherent cells, 10 mL of ice-cold 2.5 mM EDTA/PBS solution was added for 10 min on ice. Cells were transferred to a 15-ml conical tube and centrifuge 10 min at 300×g, room temperature, to remove the EDTA/PBS solution. Monocytes were then resuspended in RPMI 10% FCS at 5×10^5 cells/mL to be used in ADCP assay. Monocyte purity was assessed by staining cells with antibodies to human CD3 FITC (Biolegend 300306), CD19 PeCy7 (Biolegend 302216), CD14 BV421 (BD Biosciences, 565283), and CD16 (Biolegend 302046).
as §4

CD16a158V [4] = target: T2, CD16a158V (Homo sapiens, UniProt P08637, F176V); assay: Biotinylated Ligand ELISA Assay; format: binding; settings: Biotinylated CD16a protein at 10 nM
Method in brief: as §5

CD16a158V [5] = target: T2, CD16a158V; assay: Microscale Thermophoresis; format: binding; settings: read-out: MST-CD16a158V KD
Description: as §6

CD16a158V [6] = assay: CD16a-MATE ELISA; format: binding; settings: Carbohydrate Conjugated MATEs; relative to Rituximab; Antibodies tested at 2 ug/mL
CD16a158F [7] = target: T1, CD16a158F; assay: CD16a-MATE ELISA; format: binding; parameters: purchased Acro Biosystems CDA-H82E8; settings: Carbohydrate Conjugated MATEs; relative to Rituximab; Antibodies tested at 2 ug/mL
[8] = Biotin ELISA, No Protein (Example 55); format: binding; settings: three replicate values per compound
Description: (§7) Coat ELISA plates (Costar 3922) using Neutravidin (Thermo 31000) at 5 μg/ml (100 μl/well) for 1 hour at 37° C. Plates were washed 4 times with PBST (PBS, 0.05% Tween 20-200 μl, 1 minute/wash) then blocked using 200 μl 5% bovine serum albumin (BSA, Heat Shock, Fraction V-American Bio AB01088-00100) in PBST for 2 hours at 25° C. with moderate shaking. BSA was removed and plates were washed. Biotinylated ligands diluted in PBSTB (PBST+0.1% BSA) were then added (100 μl/well) and incubated for 1 hour at 25° C. with gentle shaking. Ligands were removed and plates were washed. Any remaining unoccupied neutravidin binding sites were blocked by adding 100 μM Biotin (Fisher BP232-1) (100 μl/well) and incubated for 1 hour at 25° C. with gentle shaking. Plates were then washed. […] Protein was removed and plates were washed. Streptavidin-HRP (Invitrogen 434323) diluted 1:5000 in PBSTB was added (100 μl/well) and incubated for 1 hour at 25° C. with gentle shaking. Wash plates. Substrate (Super Signal ELISA Pico Chemiluminescent Substrate-Thermo 37069) was added (100 μl/well) and plates were incubated for 5 minutes at 25° C. with gentle shaking. Luminescence was then measured on the Biotek Synergy H1 microplate reader.
(§8) Using similar methods as Examples 47 or 53, interactions with a number of receptors were measured. In some embodiments, “stock” is antibody only, and “control” is an antibody that went through the same procedure except using DMSO only as opposed to a compound. When contacted with targeting moieties such as antibodies in the Examples, compounds, e.g., I-95, I-96, etc. can react through their reactive groups

CD64 = CD64 (Homo sapiens, UniProt P12314); assay: Biotin ELISA, interaction with various receptors (Example 55); format: binding; settings: three replicate values per compound
Description: as §7, §8

CD32a-R167 = assay: as above; format: binding; settings: three replicate values per compound
Description: as §7, §8

CD16a158F [9] = target: T1, CD16a158F; assay: as above; format: binding; settings: three replicate values per compound
Description: as §7, §8

CD32a H167 = target: T3, CD32a H167 (Homo sapiens, UniProt P12318); assay: as above; format: binding; settings: three replicate values per compound
T3 sequence (P12318 36-218 limits assumed): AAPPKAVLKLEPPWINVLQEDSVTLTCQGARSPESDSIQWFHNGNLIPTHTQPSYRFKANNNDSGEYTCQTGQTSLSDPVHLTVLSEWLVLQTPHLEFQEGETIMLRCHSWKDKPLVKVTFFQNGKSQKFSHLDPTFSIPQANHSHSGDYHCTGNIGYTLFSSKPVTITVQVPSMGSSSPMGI
Description: as §7, §8

CD3ed = CD3ed (Homo sapiens, UniProt P04234+P07766); assay: as above; format: binding; settings: three replicate values per compound
Description: as §7, §8

CD32b = target: T4, CD32b (Homo sapiens, UniProt P31994); assay: as above; format: binding; settings: three replicate values per compound
T4 sequence (P31994 43-310): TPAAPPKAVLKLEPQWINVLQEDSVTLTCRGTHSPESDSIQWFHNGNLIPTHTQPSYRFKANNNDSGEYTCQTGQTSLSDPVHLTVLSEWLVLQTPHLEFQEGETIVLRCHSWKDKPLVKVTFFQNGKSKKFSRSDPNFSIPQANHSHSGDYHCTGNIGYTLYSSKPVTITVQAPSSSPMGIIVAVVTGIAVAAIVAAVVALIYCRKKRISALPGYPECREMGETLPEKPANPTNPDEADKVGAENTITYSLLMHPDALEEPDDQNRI
Description: as §7, §8

CD16a158V [10] = target: T2, CD16a158V; assay: as above; format: binding; settings: three replicate values per compound
Description: as §7, §8

T1 sequence (P08637 17-208 limits assumed): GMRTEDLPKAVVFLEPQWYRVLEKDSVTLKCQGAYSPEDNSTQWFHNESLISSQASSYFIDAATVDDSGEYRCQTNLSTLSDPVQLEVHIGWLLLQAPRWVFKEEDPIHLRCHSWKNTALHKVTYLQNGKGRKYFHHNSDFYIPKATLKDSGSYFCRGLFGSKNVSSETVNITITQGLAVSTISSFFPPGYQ
Sequence of CD3ed (P07766 23-126 limits assumed): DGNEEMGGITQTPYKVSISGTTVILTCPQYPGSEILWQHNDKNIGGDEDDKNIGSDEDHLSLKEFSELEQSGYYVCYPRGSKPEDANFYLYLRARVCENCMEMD
Sequence of CD3ed (P04234 22-105 limits assumed): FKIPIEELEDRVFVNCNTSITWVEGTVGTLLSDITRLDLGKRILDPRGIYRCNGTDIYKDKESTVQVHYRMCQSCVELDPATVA
Sequence of CD64 (P12314 16-374): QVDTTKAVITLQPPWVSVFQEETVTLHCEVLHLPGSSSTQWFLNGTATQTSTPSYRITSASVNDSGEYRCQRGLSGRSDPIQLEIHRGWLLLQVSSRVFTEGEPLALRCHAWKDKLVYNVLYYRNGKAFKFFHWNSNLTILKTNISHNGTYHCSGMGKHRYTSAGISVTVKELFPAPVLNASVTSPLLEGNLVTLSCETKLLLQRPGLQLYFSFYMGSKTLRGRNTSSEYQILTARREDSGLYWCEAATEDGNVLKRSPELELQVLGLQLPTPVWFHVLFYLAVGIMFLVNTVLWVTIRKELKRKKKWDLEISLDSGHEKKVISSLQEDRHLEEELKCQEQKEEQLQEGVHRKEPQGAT
T2 sequence (P08637 17-208 F176V): as the sequence (P08637 17-208 limits assumed) above, with F160V counted along it

Molecule: O=C(CCCC[C@@H]1SC[C@@H]2NC(=O)N[C@@H]21)NCCOCCOCCOCCOCCOCCOCCOCCOCCn1cc(-c2cccc(NC(=O)N3CCC4(CC3)NC(=O)N(c3ccccc3)C4=O)c2)nn1 [Compound I-27]
- ACDP (CD16a negative THP1 cells)-normalized phagocytosis score [1]: B (a normalized phagocytosis score of 1.5-2.0)
- Biotinylated Ligand ELISA-CD16a158F Binding (RLU) (CD16a158F [2]): B (a relative luminescence value (RLU) of 10,000-100,000)
- Kd (CD16a158F [3]): 100 to 500 nM
- ACDP (primary monocytes)-normalized phagocytosis score (primary monocytes): A (a normalized phagocytosis score of >2.0)
- Biotinylated Ligand ELISA-CD16a158V Binding (RLU) (CD16a158V [4]): B (a relative luminescence value (RLU) of 10,000-100,000)

Molecule: Rituximab (UDP-GalNAz labeled)
- CD16a158V Normalized* Response (%) (CD16a158V [6]): C (an ELISA result of 15-25% relative to Rituximab)
- CD16a158F Normalized* Response (%) (CD16a158F [7]): C (an ELISA result of 15-25% relative to Rituximab)

Molecule: O=C(CCCC[C@@H]1SC[C@@H]2NC(=O)N[C@@H]21)NCCOCCOCCOCCOCCOCCOCCOCCOCCn1cc(-c2ccc(NC(=O)C3CC(=O)N(c4ccccc4)C3)cc2)nn1 (stereo partly shown) [Compound I-36]
- ACDP (CD16a negative THP1 cells)-normalized phagocytosis score [1]: B (a normalized phagocytosis score of 1.5-2.0)
- Kd (CD16a158V [5]): 1 to 100 nM
- Biotinylated Ligand ELISA-CD16a158F Binding (RLU) (CD16a158F [2]): C (a relative luminescence value (RLU) of 1,000-10,000)
- ACDP (primary monocytes)-normalized phagocytosis score (primary monocytes): B (a normalized phagocytosis score of 1.5-2.0)
- Biotinylated Ligand ELISA-CD16a158V Binding (RLU) (CD16a158V [4]): C (a relative luminescence value (RLU) of 1,000-10,000)
- Biotin ELISA Results No Protein [8]: −764 and −989 and −154
- Biotin ELISA Results CD64 (CD64): 54153 and 79621 and 89966
- Biotin ELISA Results CD32a-R167 (CD32a-R167): 280 and −228 and −1215
- Biotin ELISA Results CD16a-158F (CD16a158F [9]): 2154 and −1155 and −213
- Biotin ELISA Results CD32a-H167 (CD32a H167): 1138 and 43 and 249
- Biotin ELISA Results CD3ed (CD3ed): 1016 and −29 and −4459
- Biotin ELISA Results CD32b (CD32b): 98 and 1052 and 486
- Biotin ELISA Results CD16a-158V (CD16a158V [10]): −378 and −180 and −282

Molecule: O=C(CCCC[C@@H]1SC[C@@H]2NC(=O)N[C@@H]21)NCCOCCOCCOCCOCCOCCOCCOCCOCCn1cc(-c2ccc(NC(=O)C3CC(=O)N(c4cc(F)ccc4F)C3)cc2)nn1 (stereo partly shown) [Compound I-31]
- Biotinylated Ligand ELISA-CD16a158F Binding (RLU) (CD16a158F [2]): C (a relative luminescence value (RLU) of 1,000-10,000)
- Kd (CD16a158F [3]): 500 to 1000 nM
- Biotinylated Ligand ELISA-CD16a158V Binding (RLU) (CD16a158V [4]): C (a relative luminescence value (RLU) of 1,000-10,000)
- Biotin ELISA Results No Protein [8]: 2129 and 3223 and 1542
- Biotin ELISA Results CD64 (CD64): 68732 and 70002 and 48114
- Biotin ELISA Results CD32a-R167 (CD32a-R167): 4134 and 3245 and 4916
- Biotin ELISA Results CD16a-158F (CD16a158F [9]): 1915 and 592 and 1294
- Biotin ELISA Results CD32a-H167 (CD32a H167): 3965 and 4173 and 4715
- Biotin ELISA Results CD3ed (CD3ed): 2134 and 3894 and 2741
- Biotin ELISA Results CD32b (CD32b): 3983 and 3476 and 6119
- Biotin ELISA Results CD16a-158V (CD16a158V [10]): 2241 and 1940 and 2108

The next lines start with results.

- Kd (CD16a158F [3]): > 1000 nM
Molecule: O=C(CCCC[C@@H]1SC[C@@H]2NC(=O)N[C@@H]21)NCCOCCOCCOCCOCCOCCOCCOCCOCCC(=O)N1CCC(N2CC(=O)N(c3ccccc3)C2=O)CC1 [Compound I-30]

- Kd (CD16a158V [5]): 100 to 500 nM
- Kd (CD16a158F [3]): 100 to 500 nM
Molecule: COc1ccc(OC)c(N2CC(C(=O)Nc3ccc(-c4cn(CCCC(=O)O)nn4)cc3)CC2=O)c1 (stereo not shown) [Compound I-29]

- Kd (CD16a158F [3]): 100 to 500 nM
Molecule: O=C(CCCC[C@@H]1SC[C@@H]2NC(=O)N[C@@H]21)NCCOCCOCCOCCOCCOCCOCCOCCOCCn1cc(-c2ccc(C(=O)N3CCC4(CC3)NC(=O)N(Cc3ccccc3)C4=O)cc2)nn1 [Compound I-28]
- Biotinylated Ligand ELISA-CD16a158F Binding (RLU) (CD16a158F [2]): B (a relative luminescence value (RLU) of 10,000-100,000)
- Biotinylated Ligand ELISA-CD16a158V Binding (RLU) (CD16a158V [4]): B (a relative luminescence value (RLU) of 10,000-100,000)
